# Data reported in ChEMBL document CHEMBL1137376 (J Med Chem, 2006).
# Active and inactive are the calls of the source. No cut-off for these calls is given here. Non-standard residues stand in square brackets, D forms with d. Residues, ends and D or L forms follow the SMILES beside them. Phe(4-NH2) = Nc1ccc(C[C@H](N)C(=O)O)cc1
# Legend:
# [1] = molecular target: T1, Type-1 angiotensin II receptor (Oryctolagus cuniculus) (UniProt P34976); test: Agonist activity at AT1 receptor measured as contraction of rabbit thoracic aorta at 3.0 nM to 3.0 uM; type: functional, tissue-based
# T1 sequence (whole entry): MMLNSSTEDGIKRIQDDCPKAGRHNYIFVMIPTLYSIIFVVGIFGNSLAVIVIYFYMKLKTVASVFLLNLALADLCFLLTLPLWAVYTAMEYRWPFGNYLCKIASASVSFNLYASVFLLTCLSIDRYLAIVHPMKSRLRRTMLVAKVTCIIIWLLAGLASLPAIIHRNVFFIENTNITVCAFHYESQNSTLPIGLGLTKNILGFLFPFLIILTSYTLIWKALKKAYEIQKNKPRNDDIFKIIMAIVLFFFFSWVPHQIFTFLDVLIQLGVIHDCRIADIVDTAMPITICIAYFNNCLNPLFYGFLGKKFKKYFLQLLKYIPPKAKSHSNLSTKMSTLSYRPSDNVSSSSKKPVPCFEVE
# [2] = molecular target: T2, Angiotensin II receptor (AT-1) type-1 (Rattus norvegicus, UniProt P29089+P25095); test: Displacement of [125I]Ang2 from AT1 receptor in rat liver membrane; type: cell membranes
# T2 sequence (P29089 whole entry): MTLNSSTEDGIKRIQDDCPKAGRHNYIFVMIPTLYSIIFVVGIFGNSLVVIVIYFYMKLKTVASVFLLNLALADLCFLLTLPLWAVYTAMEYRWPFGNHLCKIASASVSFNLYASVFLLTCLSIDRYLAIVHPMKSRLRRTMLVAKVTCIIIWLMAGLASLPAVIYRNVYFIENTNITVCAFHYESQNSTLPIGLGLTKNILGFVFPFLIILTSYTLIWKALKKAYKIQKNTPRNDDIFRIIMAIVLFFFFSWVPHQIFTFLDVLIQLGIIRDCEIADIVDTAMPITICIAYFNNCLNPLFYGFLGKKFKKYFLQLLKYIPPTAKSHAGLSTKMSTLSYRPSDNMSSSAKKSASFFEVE
# T2 sequence (P25095 whole entry): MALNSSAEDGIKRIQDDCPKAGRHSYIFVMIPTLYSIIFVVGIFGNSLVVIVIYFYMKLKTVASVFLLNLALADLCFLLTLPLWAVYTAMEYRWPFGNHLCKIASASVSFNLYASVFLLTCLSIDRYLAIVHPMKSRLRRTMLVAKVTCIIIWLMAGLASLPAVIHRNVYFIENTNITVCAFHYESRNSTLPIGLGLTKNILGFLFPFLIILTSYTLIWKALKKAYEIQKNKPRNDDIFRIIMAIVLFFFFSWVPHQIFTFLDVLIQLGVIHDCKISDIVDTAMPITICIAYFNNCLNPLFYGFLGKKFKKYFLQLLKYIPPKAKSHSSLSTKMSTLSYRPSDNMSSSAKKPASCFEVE
Compound,Activity [1],Ki [2]
CC[C@H](C)[C@@H]1Nc2c(Cc3ccc(O)cc3)cc(NC(=O)[C@@H](NC(=O)[C@H](CCCN=C(N)N)NC(=O)[C@@H](N)CC(=O)O)C(C)C)cc2CN(CC(=O)N[C@@H](Cc2c[nH]cn2)C(=O)N2CCC[C@H]2C(=O)N[C@@H](Cc2ccccc2)C(=O)O)C1=O,inactive,14.9 nM
CC[C@H](C)[C@H](NC(=O)[C@H](Cc1ccc(O)cc1)NC(=O)[C@@H](NC(=O)[C@H](CCCN=C(N)N)NC(=O)[C@@H](N)CC(=O)O)C(C)C)C(=O)N[C@@H](Cc1ccc(N)cc1)C(=O)N1CCC[C@H]1C(=O)N[C@@H](Cc1ccccc1)C(=O)O (H-DRVYI[Phe(4-NH2)]PF-OH),,> 10000 nM
CC[C@H](C)[C@@H]1Nc2c(Cc3ccc(O)cc3)cc(NC(=O)[C@H](CCCN=C(N)N)NC(=O)[C@@H](N)CC(=O)O)cc2CN(CC(=O)N2CCC[C@H]2C(=O)N[C@@H](Cc2ccccc2)C(=O)O)C1=O,,2108 nM
CC[C@H](C)[C@@H]1Nc2c(Cc3ccc(O)cc3)cc(NC(=O)[C@H](CCCN=C(N)N)NC(=O)[C@@H](N)CC(=O)O)cc2CN(CC(=O)N[C@@H](Cc2c[nH]cn2)C(=O)N2CCC[C@H]2C(=O)N[C@@H](Cc2ccccc2)C(=O)O)C1=O,,1668 nM
